The text below walks through data of patent US9700044B2, “Symmetrical marinopyrrole derivatives as potential antibiotic agents” (priority 2013, dated 2017).

In brackets after ≈: the same amount, converted by molar mass.

Experiment [1] relates to Methicillin-resistant Staphylococcus epidermidis (MRSE). Kind of experiment: MIC by agar dilution, MRSE clinical isolates. It is filed as cell-based. Conditions: Staphylococcus epidermidis, MRSE. The source says:
(§1) A panel of multiple resistance Gram-positive and Gram-negative pathogens listed in Tables 1 and 2 was used to evaluate the antimicrobial activity of marinopyrrole derivatives (Chart 1) with vancomycin as a positive control. Except for those marked with WHO, all pathogens were isolated between 2008 and 2010 in hospitals located in Beijing; Guangzhou; Sichuan, Shandong and Jiangsu Province. Determination of the minimum inhibitory concentration (MIC) was done by the guidelines of the Clinical and Laboratory Standards Institute (Clinical and Laboratory Standards Institute, Performance standards for antimicrobial susceptibility testing, seventeenth informational supplement. 2007, 27, M100-S17). The susceptibility tests of a bacterial strain to a marinopyrrole derivative were performed by an agar dilution method. Briefly, each sterile petri dish contained a final volume of 15 mL comprising 1 mL of a marinopyrrole derivative and 14 mL of Mueller-Hinton broth. The concentrations of a marinopyrrole derivative are 128, 64, 32, 16, 8, 4, 2, 1, 0.5, 0.25, 0.125, 0.06, 0.03, 0.015 and 0.008 μg/mL. The petri dish containing the broth with different concentration of antibiotics was first inoculated with 10^5 CFU/mL (Denley A400, United Kingdom) and the culture was then incubated with shaking at 35-37° C. for 18-20 h. The potency of the compound was determined and expressed as minimum inhibitory concentration (MIC) in μg/mL. The MIC was determined as the lowest concentration of antibiotic that inhibited visible bacterial growth.
On the technique in general: In agar dilution the substance is mixed into plates at graded concentrations.

For another experiment, the system named is E. coli. Description: MIC by agar dilution, E. coli. Conditions: Escherichia coli. It is filed as cell-based.
Description: as §1

For experiment [2], the system named is Methicillin-resistant Staphylococcus aureus with the mec A gene and PBP2a (WHO-31). Kind of experiment: MIC by agar dilution, MRSA (WHO-31). It is filed as cell-based.
Description: as §1

The subject of experiment [3] is Moderately vancomycin-resistant Enterococci faecium with the VanA gene (WHO-3). Kind of experiment: MIC by agar dilution, VRE (WHO-3). In kind it is cell-based.
Description: as §1

The next experiment deals with P. aeruginosa. Kind of experiment: MIC by agar dilution, P. aeruginosa. It is filed as cell-based. The settings on record: Pseudomonas aeruginosa.
Description: as §1

In another experiment the test system is K. penumonia. Description: MIC by agar dilution, K. penumonia. It is filed as cell-based, K. pneumonia. The settings on record: Klebsiella pneumoniae.
Description: as §1

Experiment [4] deals with Methicillin-resistant Staphylococcus aureus (MRSA). Description: MIC by agar dilution, MRSA clinical isolates. In kind it is cell-based. The settings on record: Staphylococcus aureus, MRSA.
Description: as §1

For experiment [5], the system named is Methicillin-susceptible Staphylococcus aureus (MSSA). Description: MIC by agar dilution, MSSA clinical isolates. In kind it is cell-based. Conditions: Staphylococcus aureus, MSSA.
Description: as §1

Experiment [6] relates to Highly vancomycin-resistant Enterococci faecalis (VRE). Description: MIC by agar dilution, highly resistant VRE. In kind it is cell-based.
Description: as §1

Experiment [7] relates to Oxacillin-resistant Staphylococcus aureus (WHO-25). Description: MIC by agar dilution, ORSA (WHO-25). It is filed as cell-based. The settings on record: Staphylococcus aureus.
Description: as §1

For the molecule `CN[C@H](CC(C)C)C(=O)N[C@H]1C(=O)N[C@@H](CC(N)=O)C(=O)N[C@H]2C(=O)N[C@H]3C(=O)N[C@H](C(=O)N[C@H](C(=O)O)c4cc(O)cc(O)c4-c4cc3ccc4O)[C@H](O)c3ccc(c(Cl)c3)Oc3cc2cc(c3O[C@@H]2O[C@H](CO)[C@@H](O)[C@H](O)[C@H]2O[C@H]2C[C@](C)(N)[C@H](O)[C@H](C)O2)Oc2ccc(cc2Cl)[C@H]1O` [Van, Vancomycin, reference compound], the MIC was 0.13 to 0.5 µg/mL (≈ 0.0897 to 0.345 µM) in experiment [1] (Table 1, 3 isolates); 0.5 to 1 µg/mL (≈ 0.345 to 0.69 µM) in experiment [1] (Table 2, data from 4 isolates); 0.5 to 1 µg/mL (≈ 0.345 to 0.69 µM) in [1] (Table 3, data from 4 isolates); more than 128 µg/mL against E. coli; 1 µg/mL (≈ 0.69 µM) in experiment [2] (Staphylococcus aureus); 0.5 µg/mL (≈ 0.345 µM) in [2] (Staphylococcus aureus, MRSA). Besides, the MIC is 1 µg/mL (≈ 0.69 µM) in [2] (Table 3, WHO-31); more than 128 µg/mL in experiment [3] (Enterococcus); more than 64 µg/mL in experiment [3] (Enterococcus, VRE); more than 128 µg/mL in experiment [3] (Table 3, WHO-3); more than 128 µg/mL against P. aeruginosa; more than 128 µg/mL against K. penumonia. Moreover, the MIC in experiment [4] (Table 1, 10 isolates) is 0.25 to 0.5 µg/mL (≈ 0.173 to 0.345 µM); in [4] (Table 2, data from 8 isolates) it was 0.5 to 1 µg/mL (≈ 0.345 to 0.69 µM); in experiment [4] (Table 3, data from 8 isolates) it was 0.5 to 1 µg/mL (≈ 0.345 to 0.69 µM); in experiment [5] (Table 1, 10 isolates), 0.5 to 1 µg/mL (≈ 0.345 to 0.69 µM); in experiment [5] (Table 2, data from 8 isolates) it was 1 µg/mL (≈ 0.69 µM); in experiment [5] (Table 3, data from 8 isolates), 1 µg/mL (≈ 0.69 µM). For the same molecule, the MIC in experiment [6] was more than 128 µg/mL; in experiment [7] (Table 1, ORSA (WHO-25), 1 isolate), 2 µg/mL (≈ 1.38 µM); in [7] (Table 3, WHO-25), 4 µg/mL (≈ 2.76 µM); in experiment [7] (Table 2, WHO-25), 4 µg/mL (≈ 2.76 µM).

Broadly, the MIC is the lowest concentration found to suppress growth.
